Residues, ends and D or L forms follow the SMILES beside them.
Experiments:
[1] = plasma stability in pooled normal human plasma; type: in vitro ADME
Description: (§1) Affinity and activity of all 18 peptides was improved compared to parent JBS2572. […] Activity and stability were improved up to 1.5-fold. Plasma stability was determined in pooled normal human plasma and mouse plasma at 37° C.; exemplary results also are provided in Table 3.

[2] = target: T1, C4BP/PS complex (Homo sapiens, UniProt P07225); experiment: LANCE IC50 assay on preformed C4BP/PS complex; type: binding; conditions: two hours of incubation, 100 nM peptide
T1 sequence (P07225 41-676 limits assumed): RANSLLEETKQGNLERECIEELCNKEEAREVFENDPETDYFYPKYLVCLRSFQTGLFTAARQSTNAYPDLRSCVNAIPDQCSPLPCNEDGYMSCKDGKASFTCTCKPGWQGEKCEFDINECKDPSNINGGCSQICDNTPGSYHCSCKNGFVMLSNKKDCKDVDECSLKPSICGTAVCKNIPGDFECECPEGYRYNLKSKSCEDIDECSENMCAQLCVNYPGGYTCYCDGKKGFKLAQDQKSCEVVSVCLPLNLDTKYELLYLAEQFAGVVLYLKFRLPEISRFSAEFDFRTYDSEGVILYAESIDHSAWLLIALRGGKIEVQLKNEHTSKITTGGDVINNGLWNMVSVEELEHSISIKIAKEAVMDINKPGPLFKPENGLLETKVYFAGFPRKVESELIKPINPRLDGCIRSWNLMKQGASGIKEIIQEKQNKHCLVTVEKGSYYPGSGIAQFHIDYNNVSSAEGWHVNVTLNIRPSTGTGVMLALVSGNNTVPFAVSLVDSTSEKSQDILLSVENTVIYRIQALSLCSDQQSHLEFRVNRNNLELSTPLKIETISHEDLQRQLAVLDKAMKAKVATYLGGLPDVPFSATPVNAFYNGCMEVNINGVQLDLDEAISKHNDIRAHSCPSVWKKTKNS
Description: To investigate the effect of the peptides described herein on PS/C4BP complexes, a LANCE IC50 assay was established using methods similar to those described above. JBS2572 or JBS3216 was added to a preformed C4BP/PS complex. Changes in the complex concentration were followed by recording the TR-FRET signal. For both peptides, a time- and concentration-dependent dissociation of the C4BP/PS complex was observed. The IC50 of JBS3216 was 0.3 nM, and the IC50 of JBS2572 was 2 nM. The time-dependency of the complex reduction was similar for both peptides. After two hours of incubation in the presence of 100 nM JBS2572 or JBS3216, the C4BP/PS complex was reduced to 60% and 50%, respectively. In addition, binding of biotinylated JBS2572 to Protein S was inhibited by C4BP in the LANCE IC50 assay. Pull-down experiments where JBS2697 was coupled to streptavidin sepharose and incubated for one hour at room temperature with (a) Protein S (1.6 pmol) (b) C4BP (8.5 pmol) and (c) Protein S (1.6 pmol)+C4BP (8.5 pmol) supported the results from the modified LANCE IC50 assay.

[3] = target: T2, human full-length Protein S (Homo sapiens, UniProt P07225); experiment: Biacore (surface plasmon resonance) on immobilized Protein S; type: binding; conditions: Biacore
T2 construct: using human full-length Protein S and human GAS6
T2 sequence (P07225 41-676 limits assumed): T1 sequence (P07225 41-676 limits assumed)
Description: Protein S affinity also was determined via Biacore (Biacore 3000 or Biacore T200) using human full-length Protein S and human GAS6. Briefly, 1000 RU of Protein S or GAS6 were immobilized on a CMS chip. In order to probe the kinetics of Protein S binding peptides to Protein S, the peptides were injected at various concentrations in a HBS-buffer containing 3 mM CaCl2 and 1% DMSO to the flow cell and allowed to interact with the immobilized proteins on the sensor chip. The chip could be regenerated with 4 M MgCl2 in HBS-buffer. Sensorgrams were fitted to a Langmuir binding model for the determination of kon and koff and the calculation of KD. Peptides were tested on their specificity to Protein S with peptide binding studies on the anti-target GAS6.

[4] = test system: thrombin generation; experiment: thrombin generation in non-human mammals; type: biochemical; conditions: cynomolgous monkey, marmoset monkey, pig, sheep, dog, rabbit, rat, and mouse
[5] = test system: Protein S/APC dependent thrombin generation; experiment: CAT assay in plasmas from individuals with severe hemophilia A; type: biochemical, human; conditions: plasma of severe hemophilia A patients
[6] = plasma stability in mouse plasma; type: in vitro ADME; conditions: 37° C.
Description: as §1

binding activity remaining after incubation in human plasma ([1]; 24 hours of incubation in human plasma): 50% | Stability in human plasma; 6 hours [%] ([1]; pooled normal human plasma, 37° C., 6 hours): 80 ± 2% | C4BP/PS complex reduced to [2]: 50% | koff ([3]; Table 3, read-out: koff): 0.000233 s⁻¹ | kon ([3]; Table 3, read-out: kon): 1.14e+06 M⁻¹ s⁻¹ | Kd ([3]; affinity-matured and modified peptides, read-out: KD): 0.2 nM | EC50 [5]: 85 nM | Stability in mouse plasma; 4 hours [%] [6]: 66 ± 23%
SMILES: CC(=O)N[C@@H](CCC(=O)O)C(=O)N[C@@H](Cc1ccc(O)cc1)C(=O)N[C@@H](Cc1ccc(O)cc1)C(=O)N[C@H](C(=O)N[C@@H](CO)C(=O)N[C@@H](C)C(=O)NCC(=O)N[C@@H](Cc1c[nH]c2ccccc12)C(=O)N[C@@H](Cc1ccc(O)cc1)C(=O)N[C@@H](CC(=O)O)C(=O)N[C@@H](Cc1ccc(O)cc1)C(=O)N[C@@H](CC(N)=O)C(=O)N[C@H](C(=O)N[C@@H](CC(=O)O)C(=O)N[C@H](C(=O)N[C@@H](Cc1ccc(O)cc1)C(=O)N[C@@H](Cc1ccc(O)cc1)C(=O)N[C@@H](CCC(=O)O)C(=O)N[C@@H](Cc1ccccc1)C(=O)N[C@@H](CCC(=O)O)C(N)=O)[C@@H](C)O)[C@@H](C)O)C(C)C [JBS3216] (Ac-EYYVSAGWYDYNTDTYYEFE-NH2)
thrombin generation in non-human mammals [4]: improved thrombin generation

— patent US10124033B2, “Peptides and methods of use” (BAXALTA INCORPORATED, priority 2014, dated 2018)
